One data set has as its system VEGFR kinases. To be noted: not dependent on a specific ligand; cited from earlier work.
The nature of data set [1]: Particle size volume distribution by laser diffraction (Sympatec Helos). Format: physicochemical. The conditions noted are these: spherical particles presumed. An excerpt:
When used herein, the term “micronised” is intended to mean that the particle size distribution is so that at least 90% of the particles have a particle diameter of less than 30 μm (calculated from the volume distribution curve under the presumption of spherical particles), i.e. a d90 value of at the most 30 μm. It is well-known to the skilled person that parameters used to describe a given particle size distribution may vary considerably dependent on the specific equipment and settings used. Therefore, it is important to note that whenever the terms “particle size distribution”, “particle diameter”, “d50”, “d90”, “d95”, “d99”, etc. are used herein it should be understood that the specific values or ranges used in connection therewith are always meant to be determined from the volume distribution curve under the presumption of spherical particles using laser diffraction and the conditions set forth in the section entitled “Determination of particle size distribution” herein.
Determination of the particle size volume distribution of pynasunate was performed by laser diffraction using the following equipment and settings: […]

Take `Clc1ccc(Nc2nnc(Cc3ccncc3)c3ccccc23)cc1` [(4-chlorophenyl)[4-(4-pyridylmethyl)-phthalazin-1-yl]]: the “inhibition of VEGFR kinases” value in the data set with VEGFR kinases is reported as “inhibitor of all three VEGFR kinases”.

As to `Clc1ccc(Nc2nnc(Cc3ccncc3)c3ccccc23)cc1` [pynasunate, (4-chlorophenyl)[4-(4-pyridylmethyl)-phthalazin-1-yl]ammonium hydrogen succinate], in data set [1], the “d50 particle size diameter” value is 6 μm and the “d90 particle size diameter” value turned out to be 15 μm.

Source of the values: US20060275365A1, “Immediate-release and high-drug-load pharmaceutical formulations of micronised (4-chlorophenyl) [4-(4-pyridylmethyl)phthalazin-1-yl] and salts thereof” (priority 2005, published 2006).
